In general, melting point refers to the temperature of the solid-liquid transition.

pIC50: −log10 of the molar value.

Tested on in the first series: not given
Assay: not given
Conditions: not given
Compound `Cc1nc(NC2Cc3ccccc3C2)nc(-n2ccnc2C)c1[N+](=O)[O-].Cl` had a melting point of 184 to 185 °C.
Still for that read-out and setting: with `CC[C@H]1CCCC[C@H]1Nc1nc(C)c([N+](=O)[O-])c(-n2ccnc2)n1` (relative stereo) the figure was 123 to 124 °C; with `Cc1nc(NC2Cc3ccccc3C2)nc(-n2ccnc2C)c1[N+](=O)[O-]` [2-(2-indanamino)-4-(2-methylimidazol-1-yl)-6-methyl-5-nitropyrimidine], 203 to 204 °C.

For the next series, the system named is recombinant human cytomegalovirus (HCMV). In words: microbe, parasite or virus in culture. It is filed as cell-based. The conditions noted are these: CMV assay, Table 2; read-out: Antiviral Activity. The source says: Certain preferred compounds and compositions are capable of specifically inhibiting or suppressing cytomegalovirus infection. For the assessment of activity against human CMV, a method was used which is similar to that described in Kohler, et al., J. Virol. 68:6589-6597 (1994). Briefly, a recombinant human cytomegalovirus (HCMV) was made containing a marker gene (luciferase) under the control of the promoter for the late 28 kDa viral structural phosphoprotein pp28. Human foreskin fibroblast (HFF) cells were infected with the recombinant HCMV virus (MOI 5), placed into 96-well plates, and cultured under standard cell-culture conditions. Compounds that were evaluated for anti-HCMV activity were added to the infected cells 1 hour later. The level of luciferase expression was measured 24 hours after treatment with the test compounds. […] As an additional control, the cytotoxicity of test compounds on untreated HFF cells was also evaluated in cultured cell growth experiments.
As for `CCC(Nc1nc(C)c([N+](=O)[O-])c(-n2ccnc2C)n1)c1ccccc1` (stereo not shown), the pIC50 was 6.30 to 7.00.
The same measure, in the same setting: with `CCc1nccn1-c1nc(NCc2c(F)cccc2Cl)nc(C)c1[N+](=O)[O-]` the figure was 6.30 to 7.00; with `Cc1nc(NCc2c(F)cccc2Cl)nc(-n2ccnc2C)c1[N+](=O)[O-]`, 6.30 to 7.00.
Same read-out and setting: with `CCc1nccn1-c1nc(NCc2ccc(F)cc2Cl)nc(C)c1[N+](=O)[O-]` the figure was 6.30 to 7.00.
Still for that read-out and setting: with `Cc1nc(NCc2ccc(F)cc2C(F)(F)F)nc(-n2ccnc2C)c1[N+](=O)[O-]` the figure was 6.30 to 7.00; with `CCc1nccn1-c1nc(NCc2ccc(F)cc2C(F)(F)F)nc(C)c1[N+](=O)[O-]`, 6.30 to 7.00.
In the case of `Cc1nc(NCc2ccc(F)cc2Cl)nc(-n2ccnc2C)c1[N+](=O)[O-]`, the pIC50 was 6.30 to 7.00.
Same read-out and setting: with `Cc1nc(NCc2cc(Cl)cc(Cl)c2)nc(-n2ccnc2C)c1[N+](=O)[O-]` the figure was 6.30 to 7.00; with `Cc1nc(NCc2ccc(F)c(C(F)(F)F)c2)nc(-n2ccnc2C)c1[N+](=O)[O-]`, greater than 7.00.
For `Cc1nc(NCc2cc(F)cc(F)c2)nc(-n2ccnc2C)c1[N+](=O)[O-]`, the pIC50 was greater than 7.00.
Still for that read-out and setting: with `Cc1nc(NCc2ccccc2OC(F)(F)F)nc(-n2ccnc2C)c1[N+](=O)[O-]` the figure was 6.30 to 7.00; with `Cc1nc(NCc2cc(F)cc(F)c2)nc(-n2ccnc2)c1[N+](=O)[O-]`, less than 6.30; with `Cc1nc(NCc2ccc(F)cc2)nc(-n2ccnc2C)c1[N+](=O)[O-]`, 6.30 to 7.00.
The same measure, in the same setting: with `Cc1nc(NCc2ccc(Cl)c(Cl)c2)nc(-n2ccnc2C)c1[N+](=O)[O-]` the figure was 6.30 to 7.00; with `Cc1nc(NCc2cccc(Cl)c2)nc(-n2ccnc2C)c1[N+](=O)[O-]`, greater than 7.00.
The same measure, in the same setting: with `Cc1nc(NCc2ccc(Cl)cc2)nc(-n2ccnc2C)c1[N+](=O)[O-]` the figure was 6.30 to 7.00; with `Cc1nc(NCc2cccc(C(F)(F)F)c2)nc(-n2ccnc2C)c1[N+](=O)[O-]`, greater than 7.00; with `Cc1ccc(CNc2nc(C)c([N+](=O)[O-])c(-n3ccnc3C)n2)cc1`, less than 6.30.
`Cc1nc(NCc2ccccc2Cl)nc(-n2ccnc2C)c1[N+](=O)[O-]`: the pIC50 is greater than 7.00.
With `Cc1nc(NCc2cc(C(F)(F)F)cc(C(F)(F)F)c2)nc(-n2ccnc2C)c1[N+](=O)[O-]`, the pIC50 is less than 6.30.
Same read-out and setting: with `Cc1nc(NCc2cc(Cl)ccc2Cl)nc(-n2ccnc2C)c1[N+](=O)[O-]` the figure was greater than 7.00; with `Cc1nc(NCc2cccc(Cl)c2Cl)nc(-n2ccnc2C)c1[N+](=O)[O-]`, 6.30 to 7.00.
Still for that read-out and setting: with `Cc1cccc(CNc2nc(C)c([N+](=O)[O-])c(-n3ccnc3C)n2)c1` the figure was 6.30 to 7.00; with `Cc1nc(NCc2cccc(Br)c2)nc(-n2ccnc2C)c1[N+](=O)[O-]`, greater than 7.00.
On the same count and under the same terms, with `Cc1nc(NCc2cccc(F)c2)nc(-n2ccnc2C)c1[N+](=O)[O-]` the figure was 6.30 to 7.00.
In the case of `COc1cccc(CNc2nc(C)c([N+](=O)[O-])c(-n3ccnc3C)n2)c1`, the pIC50 is 6.30 to 7.00.
The same measure, in the same setting: with `Cc1nc(NCc2cccnc2)nc(-n2ccnc2C)c1[N+](=O)[O-]` the figure was less than 6.30; with `Cc1nc(NCc2ccccn2)nc(-n2ccnc2C)c1[N+](=O)[O-]`, 6.30 to 7.00.
Same read-out and setting: with `COc1ccc(CNc2nc(C)c([N+](=O)[O-])c(-n3ccnc3C)n2)cc1OC` the figure was 6.30 to 7.00; with `Cc1nc(NCc2cc(F)c(F)c(F)c2)nc(-n2ccnc2C)c1[N+](=O)[O-]`, 6.30 to 7.00; with `Cc1nc(NCc2c(F)ccc(F)c2F)nc(-n2ccnc2C)c1[N+](=O)[O-]`, 6.30 to 7.00.
On the same count and under the same terms, with `Cc1nc(NCc2cc(F)cc(F)c2F)nc(-n2ccnc2C)c1[N+](=O)[O-]` the figure was 6.30 to 7.00; with `Cc1nc(NCc2ccc(F)c(F)c2F)nc(-n2ccnc2C)c1[N+](=O)[O-]`, 6.30 to 7.00.
For `Cc1nc(NCc2ccc(F)c(F)c2)nc(-n2ccnc2C)c1[N+](=O)[O-]`, the pIC50 was 6.30 to 7.00.
The same measure, in the same setting: with `Cc1nc(NCc2cc(C(F)(F)F)ccc2F)nc(-n2ccnc2C)c1[N+](=O)[O-]` the figure was greater than 7.00; with `Cc1cccc(Cl)c1CNc1nc(C)c([N+](=O)[O-])c(-n2ccnc2C)n1`, 6.30 to 7.00; with `Cc1ccccc1CNc1nc(C)c([N+](=O)[O-])c(-n2ccnc2)n1`, less than 6.30.
On to `Cc1ccccc1CNc1nc(C)c([N+](=O)[O-])c(-n2ccnc2C)n1`, for which the pIC50 is 6.30 to 7.00.
For `Cc1nc(NCc2cc(F)ccc2F)nc(-n2ccnc2C)c1[N+](=O)[O-]`, the pIC50 is 6.30 to 7.00.

Staying with this series, now noted: CMV assay, Table 3; read-out: Antiviral Activity.
Consider `Cc1nc(OCCC(C)(C)C)nc(-n2ccnc2)c1[N+](=O)[O-]` [3,3-dimethyl-1-butyl/H/Me], for which the pIC50 is less than 6.30.
Same read-out and setting: with `Cc1nc(OCCC(C)(C)C)nc(-n2ccnc2C)c1[N+](=O)[O-]` [3,3-dimethyl-1-butyl/Me/Me] the figure was less than 6.30; with `COC(C)CCOc1nc(C)c([N+](=O)[O-])c(-n2ccnc2)n1` (stereo not shown) [3-methoxy-1-butyl/H/Me], less than 6.30; with `COC(C)CCOc1nc(C)c([N+](=O)[O-])c(-n2ccnc2C)n1` (stereo not shown) [3-methoxy-1-butyl/Me/Me], less than 6.30.
The same measure, in the same setting: with `Cc1nc(OCc2ccccc2)nc(-n2ccnc2)c1[N+](=O)[O-]` [benzyl/H/Me] the figure was less than 6.30.
Same read-out and setting: with `CCOc1nc(C)c([N+](=O)[O-])c(-n2ccnc2C)n1` [ethyl/Me/Me] the figure was less than 6.30; with `COc1nc(C)c([N+](=O)[O-])c(-n2ccnc2C)n1` [methyl/Me/Me], less than 6.30.
Take `CCCCOc1nc(C)c([N+](=O)[O-])c(-n2ccnc2)n1` [n-butyl/H/Me]: the pIC50 was less than 6.30.
The same measure, in the same setting: with `CCCCOc1nc(C)c([N+](=O)[O-])c(-n2ccnc2C)n1` [n-butyl/Me/Me] the figure was less than 6.30; with `CCCOc1nc(C)c([N+](=O)[O-])c(-n2ccnc2)n1` [n-propyl/H/Me], less than 6.30; with `Cc1nc(OCCc2ccccc2)nc(-n2ccnc2)c1[N+](=O)[O-]` [phenethyl/H/Me], less than 6.30.

The same series, now with this note: CMV assay, Table 4; read-out: Antiviral Activity.
Regarding `Cc1nc(NC2CCc3ccccc32)nc(-n2ccnc2C)c1[N+](=O)[O-]` (stereo not shown), the pIC50 was greater than 7.00.
On the same count and under the same terms, with `Cc1nc(NC2CCCc3ccccc32)nc(-n2ccnc2C)c1[N+](=O)[O-]` (stereo not shown) the figure was 6.30 to 7.00.
For the compound `Cc1nc(N(C)C2CCc3ccccc32)nc(-n2ccnc2C)c1[N+](=O)[O-]` (stereo not shown), the pIC50 is 6.30 to 7.00.
For `Cc1nc(NC2CCc3c(Cl)cccc32)nc(-n2ccnc2C)c1[N+](=O)[O-]` (stereo not shown), the pIC50 is less than 6.30.
Still for that read-out and setting: with `Cc1nc(NC2COc3ccccc32)nc(-n2ccnc2C)c1[N+](=O)[O-]` (stereo not shown) the figure was 6.30 to 7.00; with `Cc1nc(NC2CCc3cc(F)c(F)cc32)nc(-n2ccnc2)c1[N+](=O)[O-]` (stereo not shown), 6.30 to 7.00.
As to `CCc1nccn1-c1nc(NC2CCc3cc(F)c(F)cc32)nc(C)c1[N+](=O)[O-]` (stereo not shown), the pIC50 was 6.30 to 7.00.
Same read-out and setting: with `Cc1nc(NC2CCc3cc(F)c(F)cc32)nc(-n2ccnc2C)c1[N+](=O)[O-]` (stereo not shown) the figure was 6.30 to 7.00; with `CCc1nccn1-c1nc(NC2Cc3ccccc3C2)nc(C)c1[N+](=O)[O-]`, less than 6.30; with `Cc1nc(NC2CCc3c(F)ccc(F)c32)nc(-n2ccnc2)c1[N+](=O)[O-]` (stereo not shown), 6.30 to 7.00.
Still for that read-out and setting: with `Cc1nc(NC2CCc3c(F)ccc(F)c32)nc(-n2ccnc2C)c1[N+](=O)[O-]` (stereo not shown) the figure was greater than 7.00.
Still for that read-out and setting: with `CCc1nccn1-c1nc(NC2CCc3c(F)ccc(F)c32)nc(C)c1[N+](=O)[O-]` (stereo not shown) the figure was greater than 7.00.
`Cc1nc(NC2CCc3c(F)cccc32)nc(-n2ccnc2)c1[N+](=O)[O-]` (stereo not shown): the pIC50 was 6.30 to 7.00.
On the same count and under the same terms, with `Cc1nc(NC2CCc3c(F)cccc32)nc(-n2ccnc2C)c1[N+](=O)[O-]` (stereo not shown) the figure was 6.30 to 7.00.
As for `CCc1nccn1-c1nc(NC2CCc3c(F)cccc32)nc(C)c1[N+](=O)[O-]` (stereo not shown), the pIC50 is 6.30 to 7.00.
With `Cc1nc(NC2CCc3cc(Br)ccc32)nc(-n2ccnc2C)c1[N+](=O)[O-]` (stereo not shown), the pIC50 was 6.30 to 7.00.
Still for that read-out and setting: with `Cc1nc(NC2CCc3ccccc32)nc(-n2ccnc2)c1[N+](=O)[O-]` (stereo not shown) the figure was greater than 7.00; with `Cc1nc(NC2CCc3ccc(Cl)cc32)nc(-n2ccnc2C)c1[N+](=O)[O-]` (stereo not shown), 6.30 to 7.00; with `Cc1nc(NC2CCc3cc(F)ccc32)nc(-n2ccnc2)c1[N+](=O)[O-]` (stereo not shown), greater than 7.00.
On the same count and under the same terms, with `Cc1nc(NC2CCc3cc(F)ccc32)nc(-n2ccnc2C)c1[N+](=O)[O-]` (stereo not shown) the figure was 6.30 to 7.00.
The same measure, in the same setting: with `COC1c2ccccc2CC1Nc1nc(C)c([N+](=O)[O-])c(-n2ccnc2)n1` (stereo not shown) the figure was less than 6.30; with `COC1c2ccccc2CC1Nc1nc(C)c([N+](=O)[O-])c(-n2ccnc2C)n1` (stereo not shown), less than 6.30.
As to `CCc1nccn1-c1nc(NC2CCc3ccccc32)nc(C)c1[N+](=O)[O-]` (stereo not shown), the pIC50 is 6.30 to 7.00.
Same read-out and setting: with `Cc1nc(NC2Cc3ccccc3C2(C)C)nc(-n2ccnc2)c1[N+](=O)[O-]` (stereo not shown) the figure was less than 6.30; with `Cc1nc(NC2Cc3ccccc3C2(C)C)nc(-n2ccnc2C)c1[N+](=O)[O-]` (stereo not shown), 6.30 to 7.00.

Still in this series, the particulars now being: Human betaherpesvirus 5, HFF, 24 h.
Consider `Cc1nc(N2CCN(Cc3ccccc3)CC2)nc(-n2ccnc2C)c1[N+](=O)[O-]` [u, 2-(4-benzylpiperazin-1-yl)-4-(2-methylimidazol-1-yl)-6-methyl-5-nitropyrimidine], for which the pIC50 is 7.00.

The values are drawn from patent publication US6835726B2, “Pyrimidine derivatives” (priority 1998, dated 2004).
